{"source": "patent US8847003B2", "about": "“Role of proteoglycans in drug dependence” (priority 2002, dated 2014)", "key": {"[1]": {"tested_on": "syndecan-mutant mice", "test": "Cue-induced reinstatement of cocaine-seeking behavior", "assay_type": "in vivo", "conditions": "for reinstatement of cocaine seeking behavior in mice (figure legend): FIG. 6 legend", "text": ". Separate groups of mice of the 3 syndecan mutant genotypes (syndecan-3 knockout, whole syndecan-1 transgenic, and syndecan-1 ectodomain transgenic mice) were trained to self-administer cocaine by intravenous injection as described above. Mice were subjected to 7 sessions of 1-hour access to self-administration followed by 8 sessions of 6-hour access as described above.\nMice were allowed one 1-hour extinction session/day for a minimum of 14 days, until an extinction criterion was reached. The extinction criterion was designated as a group mean of less than 10 responses/1 hour for two consecutive sessions on the active lever.\nThe conditions during testing were identical to those during the extinction phase, with the exception that lever presses led to presentations of the cocaine cue-light for 5 seconds. The 1-hour test session for cue-induced reinstatement were conducted on the day following the last extinction session. A one way ANOVA with one between factor (genotype, three) were used to measure any differential effects of the cocaine-related cue induced reinstatement.\nIn still another example, the following experiment was performed showing that a wide spectrum of MMP inhibitors block cue-induced reinstatement of cocaine seeking behavior. Lever-pressing behavior in cocaine self-administering syndecan-mutant mice was extinguished in the absence of the 20 sec cue light (CS) that was paired with cocaine infusions during the training phase as shown in Example 4. […] In FIG. 6B, After a few days, animals were again presented with the cue light non-contingently and on the third day of reinstatement they were administered IP the systemically active broad-spectrum MMP inhibitor prinomastat (20 mg/Kg) 30-60 min before the reinstatement sessions starting on the third session."}, "[2]": {"test": "Rotarod performance", "assay_type": "in vivo, mice", "conditions": "prinomastat at the dose used (20 mg/Kg IP); data not shown"}, "[3]": {"tested_on": "mouse hypothalamic protein extracts", "test": "Cleavage of internally-quenched fluorogenic peptides by hypothalamic protein extracts", "assay_type": "biochemical", "conditions": "37° C., 50 mM Tris-HCl buffer, pH 7.0; for proteolytic cleavage of the fluorogenic peptide by hypothalamic extracts: peptide as substrate", "text": "According to one of the embodiments of the invention, syndecan-3 sheddases are identified by an assay for syndecan-3 cleavage, which requires knowledge of the cleavage site. The cleavage site for syndecan-3 cleavage is not presently completely identified. However, according to embodiments of the invention, we designed a battery of overlapping internally-quenched fluorogenic peptides spanning the juxta-membrane region of the mouse syndecan-3 (Amino Acid residues 355-388) labeled at their ends with Abz (ortho-aminobenzoyl) and EDDnp (ethylenediaminedinitrophenyl) for fluorescent detection of proteolytic cleavage (FIG. 7A). The peptides were individually incubated with mouse hypothalamic protein extracts at 37° C. in 50 mM Tris-HCl buffer, pH 7.0. Fluorescence was continuously measured at λex=320 nm and λem=420 nm. […] Proteolytic activity is expressed as reaction rate (activity/μl/min). […] Thus, this peptide or a peptide overlapping this peptide can be used in an assay to identify the sheddase of syndecan-3 and/or drugs that prevent or facilitate shedding (inhibitors, activators, mimics antimimics).\nWhile the invention has been described in conjunction with the detailed description, the foregoing description is intended to illustrate and not limit the scope of the invention, which is defined by the scope of the appended claims. Other aspects, advantages, and modifications are within the scope of the following claims."}, "[4]": {"tested_on": "syndecan-3", "test": "Western blot of uncleaved syndecan-3 after ICV GM-6001 in mice", "assay_type": "in vivo, C57BL/6J mice", "conditions": "for uncleaved syndecan-3 / shedding of syndecan-3 (western blot, syndecan-3 C-terminal domain antibody): ICV at various doses, sacrificed 3 hours after administration", "text": "FIG. 5B. Quantification of western blot shown in (A)."}}, "note": "Ends that are not written are not given here."}
{"compound": "CC1(C)SCCN(S(=O)(=O)c2ccc(Oc3ccncc3)cc2)[C@H]1C(=O)NO", "note": "[prinomastat, Prinomastat]", "values": [{"measurement": "reinstatement of cocaine seeking behavior in mice (figure legend)", "setting": "[1]", "value": "block reinstatement of cocaine seeking behavior"}, {"measurement": "responding during reinstatement", "setting": "[1]; prinomastat 20 mg/Kg IP 30-60 min before sessions, syndecan-1 ectodomain Tg mice, p<0.01 from last day before treatment", "value": "significantly declined"}, {"measurement": "performance on the rotarod", "setting": "[2]", "value": "did not affect"}]}
{"compound": "Mca-PLQAV-Dpa-RSSSR-NH2 [Compound E003]", "values": [{"measurement": "proteolytic cleavage of the fluorogenic peptide by hypothalamic extracts", "setting": "[3]", "value": "observed activity"}]}
{"compound": "RPGLGLHDNA (not fully specified; also: fluorophore/quencher pair (positions not given here); listed as Mus musculus) [Peptide 1, internally-quenched fluorogenic peptide from mouse syndecan-3 juxta-membrane region]", "values": [{"measurement": "proteolytic cleavage of the fluorogenic peptide by hypothalamic extracts", "setting": "[3]", "value": "efficiently hydrolized"}]}
{"compound": "c1cnc2c(c1)ccc1cccnc12", "note": "[ortho-phenanthroline]", "values": [{"measurement": "inhibition of hydrolysis of peptide 1 (Seq Id No. 3) by hypothalamic extract", "setting": "[3]; fluorescence λex=320 nm, λem=420 nm", "value": "completely inhibited"}]}
{"compound": "Ilomastat [GM6001]", "values": [{"measurement": "uncleaved syndecan-3 / shedding of syndecan-3 (western blot, syndecan-3 C-terminal domain antibody)", "setting": "[4]", "value": "reduces shedding of syndecan-3"}, {"measurement": "uncleaved syndecan-3 / shedding of syndecan-3 (western blot, syndecan-3 C-terminal domain antibody)", "setting": "[4]; listed as GM-6001", "value": "accumulation of uncleaved syndecan-3"}, {"measurement": "increase of uncleaved syndecan-3 (quantification of western blot)", "setting": "[4]; ICV, highest doses tested (0.4 μg, 2.0 μg), p<0.01 from vehicle-injected control", "value": "about 3 fold"}, {"measurement": "reinstatement of cocaine seeking behavior in mice (figure legend)", "setting": "[1]", "value": "block reinstatement of cocaine seeking behavior"}, {"measurement": "responding during reinstatement, last day before treatment vs last day of treatment", "setting": "[1]; GM6001 0.4 μg ICV 30-60 min before sessions, syndecan-3 KO mice", "value": "not significantly different"}, {"measurement": "cocaine seeking behavior (responding) during reinstatement", "setting": "[1]; GM6001 0.4 μg ICV 30-60 min before sessions, whole syndecan-1 Tg mice, p<0.01 from last day before treatment", "value": "greatly reduced"}]}
